Where “and” joins values, the source holds several entries; their conditions need not be identical. Equal entries are not always repeated. Where two headings read alike, the source gives them in different places.
How the values were obtained:
[1] = molecular target: T1, reduced-folate carrier (RFC) (Mus musculus, UniProt P41438); assay: Inhibition of 3H MTX uptake in L1210 cells; assay type: cell-based; settings: Inhibition of 3H MTX uptake Ki, L1210, mouse L1210 tumor cells; high Ki = low affinity for RFC
T1 construct: endogenous in cells; host or cells: L1210
T1 sequence (P41438 1-512): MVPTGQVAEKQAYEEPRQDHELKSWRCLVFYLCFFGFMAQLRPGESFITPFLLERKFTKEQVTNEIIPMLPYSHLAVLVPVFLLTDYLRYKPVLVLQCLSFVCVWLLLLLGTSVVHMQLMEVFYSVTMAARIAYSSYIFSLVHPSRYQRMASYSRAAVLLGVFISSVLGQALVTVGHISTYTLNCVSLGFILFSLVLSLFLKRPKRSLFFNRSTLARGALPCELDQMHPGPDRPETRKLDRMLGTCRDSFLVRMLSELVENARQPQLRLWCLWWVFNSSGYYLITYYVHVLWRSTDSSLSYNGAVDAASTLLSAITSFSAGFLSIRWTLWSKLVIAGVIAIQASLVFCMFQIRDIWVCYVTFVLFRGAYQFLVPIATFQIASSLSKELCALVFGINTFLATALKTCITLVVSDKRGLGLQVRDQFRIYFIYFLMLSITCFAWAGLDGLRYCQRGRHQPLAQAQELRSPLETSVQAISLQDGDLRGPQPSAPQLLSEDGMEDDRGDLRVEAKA

A431 cells = assay: Inhibition of cell growth, A431 cells; settings: for fold increased IC50 in presence of folic acid, A431: IC50 + 1 μM FA vs without FA
A431-FBP cells = assay: Inhibition of cell growth, A431-FBP cells; settings: for fold increased sensitivity compared with A431, A431-FBP: A431 IC50 vs A431-FBP IC50; for fold increased IC50 in presence of folic acid, A431-FBP: IC50 + 1 μM FA vs without FA
[2] = molecular target: T2, reduced-folate carrier (RFC) (Homo sapiens, UniProt P41440); assay: Inhibition of 3H MTX uptake in W1L2 cells; assay type: cell-based; settings: Inhibition of 3H MTX uptake Ki, W1L2, human lymphoblastoid W1L2 cells; high Ki = low affinity for RFC
T2 construct: endogenous in cells; host or cells: W1L2
T2 sequence (P41440 1-591): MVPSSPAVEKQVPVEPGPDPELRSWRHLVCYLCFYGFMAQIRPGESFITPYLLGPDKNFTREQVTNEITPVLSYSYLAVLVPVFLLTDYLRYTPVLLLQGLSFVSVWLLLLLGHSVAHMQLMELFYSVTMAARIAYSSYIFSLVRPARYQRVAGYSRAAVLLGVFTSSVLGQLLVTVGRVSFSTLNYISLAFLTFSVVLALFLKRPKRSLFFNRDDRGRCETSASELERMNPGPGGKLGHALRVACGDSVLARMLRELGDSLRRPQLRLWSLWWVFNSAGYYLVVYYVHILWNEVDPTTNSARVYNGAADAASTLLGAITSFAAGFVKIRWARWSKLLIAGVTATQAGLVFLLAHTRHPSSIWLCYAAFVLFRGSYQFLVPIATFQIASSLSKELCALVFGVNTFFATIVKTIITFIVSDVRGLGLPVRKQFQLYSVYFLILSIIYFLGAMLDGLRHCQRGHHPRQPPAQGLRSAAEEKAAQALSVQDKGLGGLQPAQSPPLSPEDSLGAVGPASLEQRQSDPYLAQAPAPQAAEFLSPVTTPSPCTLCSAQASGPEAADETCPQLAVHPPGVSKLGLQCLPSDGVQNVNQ

α-FR [3] = molecular target: T3, α-FR (Mus musculus, UniProt P35846); assay: Binding to α-FR relative to folic acid, L1210-FBP cells; settings: L1210-FBP mouse tumor cells overexpressing α-FR; folic acid = 1
T3 construct: endogenous in cells; host or cells: mouse L1210-FBP cells
T3 sequence (P35846 25-232): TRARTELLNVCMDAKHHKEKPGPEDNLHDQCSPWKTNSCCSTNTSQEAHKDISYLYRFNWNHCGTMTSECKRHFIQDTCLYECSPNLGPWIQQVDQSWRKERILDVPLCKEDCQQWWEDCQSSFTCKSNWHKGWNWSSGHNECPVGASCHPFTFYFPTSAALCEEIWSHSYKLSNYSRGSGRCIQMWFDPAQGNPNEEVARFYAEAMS

KB cells = assay: Inhibition of cell growth, KB cells; settings: for fold increased IC50 in presence of folic acid, KB: IC50 + 1 μM FA vs without FA;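 on all read-outs here: KB nasopharyngeal carcinoma cells express the α-folate receptor, and leucovorin at 20 nM was the folate source in the growth medium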
α-FR [4] = molecular target: T4, α-FR (Homo sapiens, UniProt P15328); assay: Binding to α-FR relative to folic acid, A431-FBP cells; settings: human A431 cells transfected with α-FR; folic acid = 1
T4 construct: expressed in transfected cells; host or cells: A431 (human vulvar carcinoma)
T4 sequence (P15328 25-234): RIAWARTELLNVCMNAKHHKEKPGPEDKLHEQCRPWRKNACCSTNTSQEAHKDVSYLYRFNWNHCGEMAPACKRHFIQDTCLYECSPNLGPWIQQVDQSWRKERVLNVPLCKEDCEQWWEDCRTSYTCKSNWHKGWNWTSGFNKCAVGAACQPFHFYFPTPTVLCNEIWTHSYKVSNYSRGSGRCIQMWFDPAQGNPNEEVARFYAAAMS

[5] = molecular target: T5, thymidylate synthase (TS) from L1210 mouse leukaemia cells (Mus musculus, UniProt P07607); assay: Inhibition of isolated L1210 thymidylate synthase; assay type: biochemical
T5 construct: obtained in partially purified form from L1210 mouse leukaemia cells; endogenous in cells; host or cells: L1210 mouse leukaemia cells (enzyme partially purified)
T5 sequence (P07607 whole entry): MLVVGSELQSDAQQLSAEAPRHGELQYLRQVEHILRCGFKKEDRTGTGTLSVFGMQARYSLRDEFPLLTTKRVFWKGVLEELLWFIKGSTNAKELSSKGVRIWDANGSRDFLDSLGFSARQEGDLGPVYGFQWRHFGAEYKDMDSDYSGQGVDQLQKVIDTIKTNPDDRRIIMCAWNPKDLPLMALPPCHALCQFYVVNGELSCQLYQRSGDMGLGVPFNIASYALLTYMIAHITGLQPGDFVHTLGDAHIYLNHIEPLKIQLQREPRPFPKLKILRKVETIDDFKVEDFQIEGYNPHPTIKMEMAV

[6] = Homo sapiens, A-431, read-out: Inhibition of cell growth, IC50, A431
[7] = Homo sapiens, read-out: Inhibition of cell growth, IC50, A431-FBP
[8] = Homo sapiens, KB, read-out: Inhibition of cell growth, IC50, KB, 20 nM LV
[9] = read-out: Inhibition of isolated L1210 TS, Kiapp
[10] = read-out: Inhibition of cell growth, IC50, A431 + 1 μM FA, 20 nM LV, + 1 μM folic acid
[11] = read-out: Inhibition of cell growth, IC50, A431-FBP + 1 μM FA, 20 nM LV, + 1 μM folic acid
[12] = read-out: Inhibition of cell growth, IC50, KB + 1 μM FA, 20 nM LV, + 1 μM folic acid
[13] = Inhibition of isolated L1210 TS, Kiapp

Row | Structure (SMILES) | Ki [1] | fold increased IC50 in presence of folic acid, A431 (A431 cells; 20 nM LV) | IC50 (A431 cells; [6]) | fold increased IC50 in presence of folic acid, A431-FBP (A431-FBP cells; 20 nM LV) | IC50 (A431-FBP cells; [7]) | Ki [2] | Inverse relative affinity for α-FR, L1210-FBP (α-FR [3]) | fold increased IC50 in presence of folic acid, KB (KB cells; 20 nM LV) | IC50 (KB cells; [8]) | Inverse relative affinity for α-FR, A431-FBP (α-FR [4]) | Ki [5, 9] | IC50 (A431 cells; [10]) | IC50 (A431-FBP cells; [11]) | IC50 (KB cells; [12]) | IC50 (KB cells; read-out: Inhibition of cell growth, IC50, KB, 20 nM LV) | fold increased sensitivity compared with A431, A431-FBP (A431-FBP cells; 20 nM LV) | Ki [5, 13]
1 | C#CCN(c1ccc(C(=O)N[C@@H](CCC(=O)N[C@H](CCC(=O)O)C(=O)O)C(=O)O)cc1)C1CCc2cc3nc(CO)[nH]c(=O)c3cc21 (mixture of isomers) [CB300945 (R, S)] | > 250000 nM | (1) fold | 9800 ± 3400 nM | (3100) fold | 2.1 ± 1.1 nM | > 250000 nM | 0.73 ± 0.06 | (2100) fold | 3.4 ± 0.9 nM | 0.67 ± 0.11 | – | – | 6500 ± 860 nM | – | – | (4700) fold | 2.6 nM and 3.3 nM
2 | C#CCN(Cc1ccc2nc(N)[nH]c(=O)c2c1)c1ccc(C(=O)N[C@@H](CCC(=O)O)C(=O)O)cc1 [CB3717, reference compound] | 46000 ± 17000 nM | – | 1200 ± 630 nM | – | 260 ± 120 nM | – | – | – | – | – | – | 1400 ± 560 nM | 450 ± 140 nM | – | – | – | –
3 | C#CCN(c1ccc(C(=O)N[C@@H](CCC(=O)N[C@H](CCC(=O)O)C(=O)O)C(=O)O)cc1)[C@H]1CCc2cc3nc(CO)[nH]c(=O)c3cc21 [CB300945 (S)] | – | (1) fold | 7000 nM | (4300) fold | 1.5 nM | – | 0.70 ± 0.015 | (1800) fold | 2.7 ± 1.5 nM | 0.69 ± 0.05 | – | 6500 nM | 6400 nM | 4800 ± 750 nM | – | (4700) fold | 1.9 nM
4 | Cc1nc2ccc(CN(C)c3ccc(C(=O)N[C@@H](CCC(=O)O)C(=O)O)s3)cc2c(=O)[nH]1 [Raltitrexed, reference compound] | 2600 nM and 2300 nM | – | 3.4 ± 1.6 nM | – | 0.79 ± 0.36 nM | – | – | – | 1.1 ± 0.71 nM | – | 510 nM | 3.6 ± 1.6 nM | 1.3 ± 0.7 nM | 1.2 ± 0.59 nM | – | – | –

More lines, main results first:

Row | Ki [1] | fold increased IC50 in presence of folic acid, A431 (A431 cells; 20 nM LV) | IC50 (A431 cells; [6]) | fold increased IC50 in presence of folic acid, A431-FBP (A431-FBP cells; 20 nM LV) | IC50 (A431-FBP cells; [7]) | Ki [2] | Inverse relative affinity for α-FR, L1210-FBP (α-FR [3]) | fold increased IC50 in presence of folic acid, KB (KB cells; 20 nM LV) | IC50 (KB cells; [8]) | Inverse relative affinity for α-FR, A431-FBP (α-FR [4]) | Ki [5, 9] | IC50 (A431 cells; [10]) | IC50 (A431-FBP cells; [11]) | IC50 (KB cells; [12]) | IC50 (KB cells; read-out: Inhibition of cell growth, IC50, KB, 20 nM LV) | Structure (SMILES) | fold increased sensitivity compared with A431, A431-FBP (A431-FBP cells; 20 nM LV) | Ki [5, 13]
5 | 166000 ± 34000 nM | (1) fold | 1400 ± 230 nM | (130) fold | 6.5 ± 0.1 nM | 279000 ± 146000 nM | 0.60 ± 0.06 | (140) fold | 5.3 ± 2.5 nM | 0.59 ± 0.03 | 0.42 nM | – | – | – | – | C#CCN(c1ccc(C(=O)N[C@@H](CCC(=O)N[C@H](CCC(=O)O)C(=O)O)C(=O)O)cc1)C1CCc2cc3nc(C)[nH]c(=O)c3cc21 (mixture of isomers) [CB300638 (R, S), N-{-{4-[N-((6RS)-2-methyl-4-oxo-3,4,7,8-tetrahydro-6H-cyclopenta[g]quinazolin-6-yl)-N-(prop-2-ynyl)amino]benzoyl}-L-γ-glutamyl}-D-glutamic acid] | (220) fold | –
6 | > 250000 nM | (1) fold | 2200 ± 170 nM | (2100) fold | 0.92 ± 0.12 nM | > 250000 nM | 0.62 ± 0.04 | (430) fold | 5.1 ± 0.31 nM | 0.64 ± 0.046 | 0.78 nM | 2100 ± 58 nM | 1900 ± 170 nM | 2200 ± 400 nM | – | C#CCN(c1ccc(C(=O)N[C@@H](CCC(=O)N(C)C(CCC(=O)O)C(=O)O)C(=O)O)cc1)C1CCc2cc3nc(C)[nH]c(=O)c3cc21 (mixture of isomers) [CB300899 (R, S), N-methyl-N-{N-{4-[N-((6RS)-2-methyl-4-oxo-3,4,7,8-tetrahydro-6H-cyclopenta[g]quinazolin-6-yl)-N-(prop-2-ynyl)amino]benzoyl}-L-γ-glutamyl}-L-glutamic acid] | (2400) fold | –
7 | – | (1) fold | 4500 nM | (180) fold | 28 nM | – | – | – | – | – | – | – | – | – | – | C#CCN(c1ccc(C(=O)N[C@@H](CCC(=O)N(C)[C@@H](CCC(=O)O)C(=O)O)C(=O)O)cc1)C1CCc2cc3nc(CO)[nH]c(=O)c3cc21 (mixture of isomers) [CB300960 (R, S), N-{N-{4-[N-((6RS)-2-hydroxymethyl-4-oxo-3,4,7,8-tetrahydro-6H-cyclopenta[g]quinazolin-6-yl)-N-(prop-2-ynyl)amino]benzoyl}-L-γ-glutamyl}-N-methyl-L-glutamic acid] | – | –
8 | 4300 nM and 4700 nM | (1) fold | 2200 ± 260 nM | (1) fold | 1400 ± 360 nM | 1300 nM | 0.30 ± 0.07 | (2) fold | 130 ± 6 nM | – | 23 nM | 2600 ± 920 nM | 1500 ± 290 nM | 310 ± 40 nM | – | C#CCN(Cc1cc2c(=O)[nH]c(C)nc2cc1C)c1ccc(C(=O)N[C@@H](CCC(=O)O)C(=O)O)cc1 [CB3900, reference compound] | (2) fold | –
9 | – | (1) fold | 4200 nM | (2) fold | 8800 nM | – | 0.71 ± 0.012 | (11) fold | 420 nM | 0.57 ± 0.032 | 12 nM | 5800 nM | 18000 nM | – | 500 nM | C#CCN(c1ccc(C(=O)N[C@@H](CCC(=O)O)C(=O)O)cc1)C1CCc2cc3nc(CO)[nH]c(=O)c3cc21 (stereo partly drawn) [CB300959 (R, S), reference compound] | (0.5) fold | –
10 | 2600 ± 60 nM | – | 24 ± 4 nM | – | 12 ± 5 nM | 1200 nM and 1000 nM | – | – | 2 ± 0.4 nM | – | – | 26 ± 3.8 nM | 20 ± 4.6 nM | 20 ± 2 nM | – | C#CCN(Cc1ccc2nc(C)[nH]c(=O)c2c1)c1ccc(C(=O)N[C@@H](CCC(=O)O)C(=O)O)cc1 [ICI 198583, reference compound] | – | –

From patent US7528141B2, “Use of cyclopenta[g]quinazoline derivatives for treating cancer” (BTG International Limited, priority 2001, dated 2009)
